Assay results reported in PubChem BioAssay AID602210 (Sanford-Burnham Center for Chemical Genomics, 2012).
The source made the active and inactive calls. How the calls were made is not given here.

Assay: H9c2 cardiomyoblast viability modulators under 2-DG – cell-based, ATPlite luminescence, rat, set 2, myocardial damage modulator project, dose response (AID 602210)
Conditions: H9c2 rat cardiomyoblasts, 2-deoxyglucose-induced death, 2 h

SMILES	IC50
COc1ccc2cc3cc(C(=O)NCCc4ccc(OC)c(OC)c4)oc3nc2c1	10.4 µM (inactive)
O=C(/C=C\c1cn(-c2ccccc2)nc1-c1ccc2c(c1)OCCO2)N1CCOCC1	> 79 µM (inactive)
COc1ccc(N/C=C(\C#N)c2nc3ccccc3n2C)c(OC)c1	> 79 µM (inactive)
CC(=O)Nc1cc(-c2cccc(C(=O)N(C)C)c2)cn2c(-c3ccc(C(C)=O)cc3)cnc12	27.1 µM (inactive)
O=c1c2ccccc2nc(CSc2ncnc3nc[nH]c23)n1-c1ccc(Cl)c(Cl)c1	14.7 µM (inactive)
CCOC(=O)c1cc2c(=O)n3cccc(C)c3nc2n(CCCOC)c1=NC(=O)c1cccnc1	11.3 µM (inactive)
CC1(c2ccccc2)NC(=O)N(CC(=O)Nc2cccc(/C=C/c3ccccn3)c2)C1=O (stereo not given)	21.8 µM (inactive)
C[C@@H]1CN([C@@H](C)CO)C(=O)c2cc(NC(=O)Nc3ccccc3)ccc2O[C@H]1CN(C)C(=O)Nc1cccc2ccccc12	15 µM (inactive)
CCOC(=O)c1cnc(Nc2nc3ccccc3o2)nc1CSc1nnc(C)s1	27.3 µM (inactive)
COc1ccc(Nc2nnc(SCc3cc(=O)n4ccsc4n3)s2)cc1	21.7 µM (inactive)
O=C(NCC(=O)N(Cc1cccs1)C(C(=O)NC1CCCCC1)c1ccco1)c1cccs1 (stereo not given)	17 µM (inactive)
CCOc1cc(/C=C(\C#N)C(=O)Nc2ccc(S(N)(=O)=O)cc2)ccc1OCCN1CCOCC1	9.62 µM
Cc1ccc(-n2cc(-c3ccccc3)c3c(N4CCOCC4)ncnc32)cc1	8.37 µM
CCCc1cc(N2CCN(C(=O)c3ccco3)CC2)n2c(nc3ccccc32)c1C#N	26.3 µM (inactive)
Cc1cc(C)c2c(N)c(C(=O)N/N=C/c3cccnc3)sc2n1	25.5 µM (inactive)
O=C(Nc1ccccc1)c1nc[nH]c1C(=O)NCCCCCCNC(=O)c1[nH]cnc1C(=O)Nc1ccccc1	4.44 µM
COc1ccc(-c2oc(=O)c3cc(OC)c(OC)cc3c2C#CCCO)cc1	21.7 µM (inactive)
O=C(Cn1nc(C(=O)O)c2ccccc2c1=O)c1c[nH]c2ccccc12	40.1 µM (inactive)
COc1ccc(Nc2nc(C(=O)N3CCc4cc(OC)c(OC)cc4C3)cs2)cc1	14.2 µM (inactive)
COc1cc2nc(Nc3ccc(F)cc3)nc(N)c2cc1OC	> 79 µM (inactive)
Cc1nc(N2CCN(c3ccccn3)CC2)c2c(C)c(C(=O)Nc3ccc(F)cc3)sc2n1	14.9 µM (inactive)
CC(=O)Nc1cccc(-c2cc(NC=O)c3ncc(-c4cccc(C(C)=O)c4)n3c2)c1	11 µM (inactive)

SMILES	IC50
COc1ccc(Cl)cc1-c1nc(-c2ccc(NC(=O)c3cccs3)cc2)no1	> 79 µM (inactive)
COc1ccc(-c2nnc(-c3cc(OC)c(OC)c(OC)c3)o2)cc1OC	15.9 µM (inactive)
COC(=O)c1[nH]c2cc(OC)c(OC)cc2c1/C=N/Nc1ccccc1	> 79 µM (inactive)
CCOC(=O)c1ccc(-c2ccc(/C=C(\C#N)C(=O)NCC3CCCO3)o2)cc1 (stereo not given)	> 79 µM (inactive)
COc1cccc(C(=O)Nc2cccc(-c3nnc(-c4ccco4)o3)c2)c1	12.6 µM (inactive)
CCOC(=O)C1=C(COC(=O)/C=C/c2ccc(F)cc2)NC(=O)NC1C (stereo not given)	18.1 µM (inactive)
CS(=O)(=O)c1ccc(-c2cnc3c(NC=O)cc(-c4ccsc4)cn23)cc1	23 µM (inactive)
CSc1nc2ncc3c(n2n1)CC1c2ccccc2CCN1C3=O (stereo not given)	51.3 µM (inactive)
COc1cc(NC(=O)c2cc3ccccc3cc2OC)ccc1NC(=O)c1cccs1	3.78 µM
CCC(=O)Nc1cccc(-c2nnc(-c3cccc(NC(=O)CC)c3)o2)c1	> 79 µM (inactive)
O=C(CN1CCN(Cc2ccccc2)CC1)Nc1ccc([N+](=O)[O-])cc1C(=O)Nc1ccccc1F	24.6 µM (inactive)
CC(=O)c1cccc(-c2cnc3c(NC=O)cc(-c4ccccc4F)cn23)c1	17.9 µM (inactive)
Cc1nc(NC(=O)c2cc3c(C)nn(-c4ccccc4)c3s2)sc1C(=O)Nc1ccccc1	> 79 µM (inactive)
COC(=O)c1cc2ccccn2c2c(C(=O)OC)c(C(=O)OC)cc1-2	5.26 µM
N#Cc1c(-c2ccco2)cc(-c2ccccn2)nc1N	37.2 µM (inactive)
COc1cc(C(=O)Nc2nc(-c3cccs3)cs2)cc(OC)c1OC	8.7 µM
C[C@@H]1CN([C@H](C)CO)S(=O)(=O)c2ccc(C#Cc3ccccc3F)cc2O[C@H]1CN(C)C(=O)c1ccc2c(c1)OCO2	8.38 µM
COC(=O)c1cccc(Nc2nc(-c3cccnc3)nc3ccccc23)c1	7.25 µM
Cc1c(O)ccc2c(-c3ccccc3)cc(=O)oc12	31.7 µM (inactive)
Cc1ccccc1NP(=O)(Oc1ccccc1F)Oc1ccccc1F	> 79 µM (inactive)
CC(=O)Nc1ccc(S(=O)(=O)N(Cc2cccnc2)Cc2cc3ccccc3[nH]c2=O)cc1	5.82 µM
O=C(Nc1cccc(Cl)c1)c1nc[nH]c1C(=O)NCCCNC(=O)c1[nH]cnc1C(=O)Nc1cccc(Cl)c1	> 79 µM (inactive)

SMILES	IC50
CCOC(=O)C1CCN(C(c2cc3c(C)ccc(C)c3[nH]c2=O)c2nnnn2C2CCCCC2)CC1 (stereo not given)	19.2 µM (inactive)
CCCOc1ccc2[nH]c(C(=O)N/N=C/c3cc(OC)c(OC)c(OC)c3)cc2c1	> 79 µM (inactive)
CC(C)(C)OC(=O)N1CCC(NC(=O)c2nc[nH]c2C(=O)NCC(=O)OCc2ccccc2)CC1	4.3 µM
CC(C)(C)NC(=O)COC(=O)c1c2c(nc3ccccc13)CCC2	16.7 µM (inactive)
Nc1c(C(=O)NC2CC2)c2nc3ccccc3nc2n1-c1ccc2c(c1)OCO2	> 79 µM (inactive)
COc1cc(/C=N/NC(=O)c2cccnc2)ccc1OS(=O)(=O)c1ccc(F)cc1	21.2 µM (inactive)
CC(C)(C)OC(=O)NCc1ccc(NC(=O)c2nc[nH]c2C(=O)NCCCCCCNC(=O)c2[nH]cnc2C(=O)Nc2ccc(CNC(=O)OC(C)(C)C)cc2)cc1	> 79 µM (inactive)
O=c1[nH]c(CSc2nnc(-c3cccnc3)n2C2CCCCC2)nc2ccccc12	> 79 µM (inactive)
C=CC[C@@H](CC(=O)NCCO)C(=O)NC[C@H](OC(=O)[C@@H](CC=C)Cc1ccc(F)cc1)c1ccccc1	11.9 µM (inactive)
COc1cc(/C=C/c2nnc3c4ccccc4ncn23)cc(OC)c1OC	7.24 µM
COCCNC(=O)COC(=O)c1ccc(OCC(=O)Nc2ccccc2OC)c(OC)c1	22 µM (inactive)
CCOC(=O)C1=C(C)NC(C)=C(C(=O)OCC)C1C(=O)OCC(=O)NC(C)C	25.1 µM (inactive)
COc1ccc2oc(C(=O)Nc3ccc(N4CCOCC4)cc3)c(C)c2c1	> 79 µM (inactive)
COc1ccccc1CN(C)C(=O)c1cc(-c2cc(OC)c(OC)c(OC)c2)nc2ccccc12	10.4 µM (inactive)
COCCn1ccc2c(OCC(=O)Nc3ccccc3OC)cccc2c1=O	22.1 µM (inactive)
COc1cc(/C=C/c2nc3ccccc3c(=O)n2-c2ccc(O)cc2)ccc1O	> 79 µM (inactive)
COc1ccc(CCn2c(=N)c(C(=O)NCC3CCCO3)cc3c(=O)n4cccc(C)c4nc32)cc1OC (stereo not given)	> 79 µM (inactive)
O=C(N/N=C/c1ccncc1)c1ccc(COc2cccc3cccnc23)cc1	> 79 µM (inactive)
O=C(CNC(=O)c1nc[nH]c1C(=O)NCc1ccccc1)OCc1ccccc1	5.21 µM
COc1cccc(Nc2nc(-c3sc(NC(=O)c4ccco4)nc3C)cs2)c1	9.04 µM
CNC(=O)c1ccc(-c2sc3nc(N4CCOCC4)c4c(c3c2N)CCCC4)o1	> 79 µM (inactive)
